“And” between values parts separate entries of the source, which are not always exact repeats. Equal values may be shown once. Read-outs that look alike come from different tables or passages of the source. Marks after values point to notes of the source that are not given here.
Tests used:
[1] = Water solubility (selection for parenteral administration); assay type: physicochemical
Chang liver cell line = experiment: Cytotoxicity assay (Cytell Cell Imaging), normal cell line; assay type: cell-based; details: Homo sapiens, read-out: IC50 Normal Cell Line Chang Liver
M-Hela = experiment: Cytotoxicity assay (Cytell Cell Imaging, DAPI/propidium iodide), cancer cell line; assay type: cell-based; details: Homo sapiens, read-out: IC50 Cancer Cell Line M-Hela
P388 murine leukemia = experiment: In vivo anti-tumor activity, i.p. implanted leukemia; parameters: species or system BDF1 hybrid male mice; details: for ILS / MST ± SD: P388; for Survival: day 60; for Survivors/Total: survivors on day 60
Protocol: Animals. In vivo experiments were performed using the BDF1 hybrid male mice of 22–24 g weight. The experimental animals were caged in a standard vivarium in 12 h light conditions with free access to food and water. All manipulations with the animals were performed in accordance with the solutions of the Commission on Bioethics of the Institute of Problems of Chemical Physics, Russian Academy of Sciences (IPCP RAS).
Anti-tumor activity. The tumors were transplanted intraperitoneally (i.p.) in accordance with a standard procedure inoculum: 10^6 tumor cells in isotonic solution of NaCl, V = 0.2 cm^3 (leukemia P388). Original compounds were injected intraperitoneally as aqueous solution. Doses from 18 to 83 mg/kg/day and the mode of administration on days 1, 5, and 9 after transplantation were used. In each experiment, a single group of tumor-bearing animals not injected with the compounds served as the control group. Each group consisted of six mice. The animals were observed daily for survival for a minimum of 60 days. The efficacy of the therapy against leukemia (defined as increase in lifespan—ILS) was assessed as the percentage of the median survival time (MST) of the treated group (t) to that of the control group (c): ILS(%) = (MSTt/MSTc) × 100.
Statistics. The experiments were carried out in triplicate. The data are presented in the form X ± SD (mean ± standard deviation). The significance of the differences between the groups was assessed using Student’s t-test. Values of p < 0.05 were considered statistically significant. The data were processed statistically using GraphPad Prism.

[2] = system: Escherichia coli MG1655 (pRecA-lux); experiment: Genotoxicity, bacterial lux-biosensor; assay type: cell-based
Source text: (§1) E. coli MG1655 (pRecA-lux) was used for the evaluation of the genotoxicity of the synthesized compounds. The biosensor with the PrecA promotor fixes the presence of the factors causing damage of DNA in a cell. The biosensor E. coli MG1655 (pSoxS-lux) was used for the evaluation of prooxidant activity. The biosensor with the PsoxS promoter fixes the production of superoxide anion and NO [75]. Bioluminescent strains were obtained by the transformation of E. coli MG1655 by hybrid plasmids pRecA-lux, pSoxS-lux. The gene cassette luxCDABE Photorhabdus luminescens under the control PrecA promoters was used in this biosensor. This plasmid was created on the basis of pBR322 and contained a selective marker of ampicillin resistance (Amp gene). The strains were kindly furnished by Manukhov I.V., Federal State Unitary Enterprise “GosNIIGenetika”).
(§2) The bacterial strains Acinetobacter calcoaceticus VKPM B-10353, E. coli MG1655 (pRecA-lux), and E. coli MG1655 (pSoxS-lux) were cultivated in Luria–Bertani (LB) medium under constant shaking to early exponential phase at 37 °C. Cells were used immediately for stress induction tests. One hundred micrograms of ampicillin per milliliter were added into LB medium at cultivation of E. coli MG1655 (pRecA-lux) and E. coli MG1655 (pSoxS-lux). Strain V. aquamarinus DSM 26054 was grown in LB medium supplemented with 3% NaCl.
(§3) Biosensors assay procedure. The detailed protocol of toxicity testing by means of a bacterial lux-biosensors is described in the article.
(§4) Calculation. The criterion of toxic influence was bioluminescence intensity change of the test object in the researched sample in comparison with the control sample.
(§5) The induction factor (I) was defined as the relation of luminescence intensity of a lux-biosensor suspension containing tested sample (Lc) to the luminescence intensity of a lux-biosensor control suspension (Lk): I = Lc/Lk.
If at significant differences from control induction factor values were ≤2, the detected genotoxic effect was evaluated as “weak”, if they were in the range from 2 to 10 as “medium”, and above 10 as “strong”. All the experiments were carried out three times independently.
(§6) Difference reliability of bioluminescence in experiment from control value was estimated by t-criterion with the help of Excel software. The conclusions about sample toxicity were made at p < 0.05.

[3] = system: Vibrio aquamarinus DSM 26054; experiment: Biofilm formation, crystal violet assay; assay type: cell-based; details: V. aquamarinus DSM 26054, control = 100%
Protocol: (§7) Bacterial strains and cultivation conditions. For the detection of biofilms, formation strains Vibrio aquamarinus DSM 26054 and Acinetobacter calcoaceticus VKPM B-10353 were used. These strains form biofilms, making them useful for studying biofilms.
as §2
(§8) The test compounds were dissolved in DMSO to the concentration of 1 × 10^−2 M. Then, they were diluted with ethanol. The control solutions were analogous dilutions of DMSO in ethanol. The tested compounds were also compared with the standard antibiotic azithromycin. Azithromycin was dissolved in DMSO to the concentration of 5 × 10^−3 M and then diluted with deionized water.
(§9) Test system for evaluation of biofilms production. To quantify the formation of biofilms, the crystal violet assay was used, with some modifications. The necessary concentrations of the test compounds were prepared as described above.
(§10) V. aquamarinus DSM 26054 was cultivated for 24 h in LB medium supplemented with 3% NaCl in the Innova 40R shaker incubator (New Brunswick Scientific, USA) at 25 °C and 200 rpm. A. calcoaceticus VKPM B-10353 was cultivated for 24 h in LB medium in the Innova 40R shaker incubator (New Brunswick Scientific, Enfield, CT, USA) at 30 °C and 200 rpm. Then, the suspensions of the daily culture of V. aquamarinus DSM 26054 and A. calcoaceticus VKPM B-10353 were diluted with LB medium supplemented with 3% NaCl to the density of 1 × 10^8 cells/mL.
(§11) The resulting suspension (180 μL) was added to the wells of a polystyrene microplate (Nuova Aptaca, Canelli, Italy). To some of the wells, 20 μL of the test substances at various concentrations were added. Since solvents used could also influence the biofilm formation, 20 μL of the appropriate solvent was added to the other part of the wells at same dilutions (control). Six replicates were done for each treatment and control. The microplate was covered with a lid and wrapped with Parafilm (Bemis Company, Inc., Oshkosh, WI, USA).
(§12) After incubation at 25 °C for 72 h, biofilms were stained. The contents in the wells were removed by means of a dispenser. The wells were then carefully washed three times with 250 μL of sterile saline. The microplates were shaken to remove all non-adherent bacteria. Biofilms were fixed with 200 μL of 96% ethanol for 15 min. After the microplates had dried in air, 200 μL of 0.5% crystal violet was introduced into the wells. After 10 min, the dye was removed. The excess dye was removed by washing with water three times. After the microplates were air-dried, the dye in the wells bound to biofilms was dissolved with 200 μL of 96% ethanol. The extraction level (absorption) of crystal violet by ethanol was measured after 60 minutes at a wavelength of 570 nm using a FLUOstar Omega microplate reader (BMG Labtech, Offenburg, Germany) in optical density units (OD570). The intensity of biofilm formation directly corresponds to the intensity of staining of the contents of the wells with the dye. Biofilm formation was determined by the difference between the mean OD readings obtained in the presence of compounds and the control.
(§13) Each experiment was performed in triplicate. The values were expressed as mean + SD. Student’s t-test was used to compare these values. Differences were considered statistically significant at p < 0.05.

[4] = system: Acinetobacter calcoaceticus VKPM B-10353; experiment: Biofilm formation, crystal violet assay; assay type: cell-based; details: A. calcoaceticus VKPM B-10353, control = 100%
Protocol: as §7, §2, §8, §9, §10, §11, §12, §13

[5] = system: E. coli MG1655 (pSoxS-lux); experiment: Prooxidant activity, bacterial lux-biosensor; assay type: cell-based, Escherichia coli
Source text: as §1, §2, §3, §4, §5, §6

[6] = 18 mg/kg/day i.p., days 1, 5, 9
[7] = 26 mg/kg/day i.p., days 1, 5, 9
[8] = 40 mg/kg/day i.p., days 1, 5, 9
[9] = 55 mg/kg/day i.p., days 1, 5, 9
[10] = 83 mg/kg/day i.p., days 1, 5, 9

CN(C)CCNC(=O)N1CCCC1c1cc2c(cc1O)OCO2.O=C(O)C(F)(F)F (stereo not drawn) [5h, 2-(2-(6-Hydroxybenzo[d][1,3]dioxol-5-yl)pyrrolidine-1-carboxamido)-N,N-dimethylethan-1-aminium 2,2,2-trifluoroacetate]
solubility in water, in words [1]: water-soluble
IC50 (Chang liver cell line): > 100 µM
IC50 (M-Hela; M-HeLa): > 100 µM
ILS (P388 murine leukemia; [6]): 276%
MST ± SD (P388 murine leukemia; [6]): 35.7 ± 10.9 days
Survival (P388 murine leukemia; 18 mg/kg/day): 50%
Survivors/Total (P388 murine leukemia; 18 mg/kg/day): 3/6
ILS (P388 murine leukemia; [7]): 95%
MST ± SD (P388 murine leukemia; [7]): 18.5 ± 8.3 days
Survival (P388 murine leukemia; 26 mg/kg/day): 17%
Survivors/Total (P388 murine leukemia; 26 mg/kg/day): 1/6
ILS (P388 murine leukemia; [8]): 447%
MST ± SD (P388 murine leukemia; [8]): 52.0 ± 8.0 days
Survival (P388 murine leukemia; 40 mg/kg/day): 83%
Survivors/Total (P388 murine leukemia; 40 mg/kg/day): 5/6
ILS (P388 murine leukemia; [9]): 300%
MST ± SD (P388 murine leukemia; [9]): 38.0 ± 9.9 days
Survival (P388 murine leukemia; 55 mg/kg/day): 50%
Survivors/Total (P388 murine leukemia; 55 mg/kg/day): 3/6
ILS (P388 murine leukemia; [10]): 100%
MST ± SD (P388 murine leukemia; [10]): 19.0 ± 8.2 days
Survival (P388 murine leukemia; 83 mg/kg/day): 17%
Survivors/Total (P388 murine leukemia; 83 mg/kg/day): 1/6
antitumor (anti-leukemic) activity, in words (P388 murine leukemia; P388, dose range 18–83 mg/kg/day i.p., days 1, 5, 9): pronounced anti-leukemic activity

O=C(Nc1ccc(Br)cc1)N1CCCC1c1ccc(Nc2c([N+](=O)[O-])c(Cl)cc3c2no[n+]3[O-])cc1O (stereo not drawn) [6d, 4-((4-(1-((4-Bromophenyl)carbamoyl)pyrrolidin-2-yl)-3-hydroxyphenyl)amino)-6-chloro-5-nitrobenzo[c][1,2,5]oxadiazole 1-oxide]
IC50 (Chang liver cell line; tested at 1–100 µM, three independent experiments): 53 ± 3.8 µM
IC50 (M-Hela; M-Hela, tested at 1–100 µM, three independent experiments): 25.5 ± 1.6 µM
DNA-damaging property, in words ([2]; 10^−9–10^−5 M, with and without S9): do not belong to the class of DNA-damaging substances
Genotoxicity (induction factor, I) ([2]; with metabolic activation (+S9), 10^−5 M): 0.66 ± 0.04
Genotoxicity (induction factor, I) ([2]; with metabolic activation (+S9), 10^−6 M): 0.71 ± 0.03
Genotoxicity (induction factor, I) ([2]; with metabolic activation (+S9), 10^−7 M): 0.71 ± 0.05
Genotoxicity (induction factor, I) ([2]; with metabolic activation (+S9), 10^−8 M): 0.79 ± 0.03
Genotoxicity (induction factor, I) ([2]; with metabolic activation (+S9), 10^−9 M): 0.76 ± 0.05
Genotoxicity (induction factor, I) ([2]; without metabolic activation (-S9), 10^−5 M): 0.60 ± 0.02
Genotoxicity (induction factor, I) ([2]; without metabolic activation (-S9), 10^−6 M): 0.70 ± 0.01
Genotoxicity (induction factor, I) ([2]; without metabolic activation (-S9), 10^−7 M): 0.62 ± 0.03
Genotoxicity (induction factor, I) ([2]; without metabolic activation (-S9), 10^−8 M): 0.70 ± 0.01
Genotoxicity (induction factor, I) ([2]; without metabolic activation (-S9), 10^−9 M): 0.64 ± 0.03
Biofilm Formation ([3]; 1 × 10^−5 M): 63.12%
Biofilm Formation ([3]; 1 × 10^−6 M): 24.11 * %
Biofilm Formation ([3]; 1 × 10^−7 M): 10.70 * %
Biofilm Formation ([3]; 1 × 10^−8 M): 6.46% and 6.46 * %
Biofilm Formation ([3]; 1 × 10^−9 M): 67.29 * %
Biofilm Formation ([4]; 1 × 10^−5 M): 89.50%
Biofilm Formation ([4]; 1 × 10^−6 M): 95.71%
Biofilm Formation ([4]; 1 × 10^−7 M): 50.00 * %
Biofilm Formation ([4]; 1 × 10^−8 M): 46.95% and 46.95 * %
Biofilm Formation ([4]; 1 × 10^−9 M): 79.16 * %
Prooxidant activity (induction factor) ([5]; 10^−5 M): 1.10 ± 0.07
Prooxidant activity (induction factor) ([5]; 10^−6 M): 1.60 ± 0.23
prooxidant response, in words ([5]; 10^−6 M): weak response
Prooxidant activity (induction factor) ([5]; 10^−7 M): 1.11 ± 0.01
Prooxidant activity (induction factor) ([5]; 10^−8 M): 1.11 ± 0.07
Prooxidant activity (induction factor) ([5]; 10^−9 M): 1.34 ± 0.09
melting point: 166 to 170 °C (dec.)

Source: PMC6749236, “Synthesis of Novel 2-(Het)arylpyrrolidine Derivatives and Evaluation of Their Anticancer and Anti-Biofilm Activity” (Molecules, 2019)
